Columns and labels:
[1] = molecular target: recombinant human MGAT2 (Homo sapiens (Human), UniProt Q3SYC2); test: Measurement of human MGAT2 inhibitory activity; assay type: biochemical; conditions: concentration exhibiting 50% enzyme inhibition; recombinant human MGAT2, 2-Oleoylglycerol/Oleoyl-CoA
Outline: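 Membrane fraction of baculovirus-infected Sf-9 cells expressing N-terminally Flag-tagged full-length human MGAT2, in 100 mmol/L phosphate pH 7.4 with 2 mmol/L DTT. The substrate solution held 30 μmol/L 2-oleoylglycerol and 10 μmol/L oleoyl-CoA. After 1 h at room temperature, diolein/diolein-d5 ratio was read by ESI Q-TOF MS and % inhibition derived against enzyme and no-enzyme controls.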

[2] = Metabolism stability test (human liver microsomes); assay type: in vitro ADME; conditions: compound concentration 0.5 μmol/L, 37° C., 30 minutes, NADPH
Experimental: Using commercially available pooled human hepatic microsomes, the compound of the present invention was reacted for a constant time, a remaining rate was calculated by comparing a reacted sample and an unreacted sample, thereby, a degree of metabolism of the compound of the present invention in liver was assessed.
A reaction was performed (oxidative reaction) at 37° C. for 0 minute or 30 minutes in the presence of 1 mmol/L NADPH in 0.2 mL of a buffer (50 mmol/L Tris-HCl pH 7.4, 150 mmol/L potassium chloride, 10 mmol/L magnesium chloride) containing 0.5 mg protein/mL of human liver microsomes. After the reaction, 50 μL of the reaction solution was added to 100 μL of a methanol/acetonitrile=1/1 (v/v) solution, mixed and centrifuged at 3000 rpm for 15 minutes. The compound of the present invention in the supernatant was quantified by LC/MS/MS, and a remaining amount of the compound of the present invention after the reaction was calculated, letting a compound amount at 0 minute reaction time to be 100%.

[3] = Solubility test (1% DMSO addition, pH 6.8 artificial intestinal juice); assay type: physicochemical; conditions: kinetic from dmso stock, 16 hours at 25° C.
Experimental: The solubility of the compound of the present invention was determined under 1% DMSO addition conditions. 10 mmol/L solution of the compound was prepared with DMSO, and 6 μL of the solution of the compound of the present invention was added to 594 μL of pH 6.8 artificial intestinal juice (118 mL of 0.2 mol/L NaOH test solution and water were added to 250 mL of 0.2 mol/L potassium dihydrogen phosphate test solution to reach 1000 mL). The mixture was left standing for 16 hours at 25° C., and the mixture was vacuum-filtered. The filtrate was two-fold diluted with methanol/water=1/1 (V/V), and the compound concentration in the filtrate was measured with HPLC or LC/MS/MS by the absolute calibration method. The dilution concentration and the dilution solvent were changed as necessary.

[4] = molecular target: CYP1A2 (Homo sapiens (Human), UniProt P05177); test: CYP inhibition test, CYP1A2; assay type: in vitro ADME; conditions: pooled human liver microsomes; 7-ethoxyresorufin O-deethylation; given as 'five kinds'
CYP1A2, sequence (P05177 whole entry): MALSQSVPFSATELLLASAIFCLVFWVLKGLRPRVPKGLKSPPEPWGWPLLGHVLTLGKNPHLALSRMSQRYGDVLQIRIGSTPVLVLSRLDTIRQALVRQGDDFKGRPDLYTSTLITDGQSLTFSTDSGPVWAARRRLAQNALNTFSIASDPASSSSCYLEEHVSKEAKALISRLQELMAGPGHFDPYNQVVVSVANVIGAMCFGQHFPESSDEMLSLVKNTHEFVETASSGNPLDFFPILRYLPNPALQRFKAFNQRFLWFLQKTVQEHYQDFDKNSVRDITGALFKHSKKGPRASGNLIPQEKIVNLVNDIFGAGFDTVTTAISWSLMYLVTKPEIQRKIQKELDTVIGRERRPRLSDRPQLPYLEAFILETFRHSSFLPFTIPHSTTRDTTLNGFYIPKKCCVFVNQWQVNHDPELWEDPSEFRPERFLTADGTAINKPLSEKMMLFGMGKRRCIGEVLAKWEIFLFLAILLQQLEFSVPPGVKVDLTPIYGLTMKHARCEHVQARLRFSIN
Description: (§1) Using commercially available pooled human hepatic microsome, and employing, as markers, 7-ethoxyresorufin O-deethylation (CYP1A2), tolbutamide methyl-hydroxylation (CYP2C9), mephenytoin 4'-hydroxylation (CYP2C19), dextromethorphan 0-demethylation (CYP2D6), and terfenadine hydroxylation (CYP3A4) as typical substrate metabolism reactions of human main five CYP enzyme forms (CYP1A2, 2C9, 2C19, 2D6, 3A4), an inhibitory degree of each metabolite production amount by the compound of the present invention was assessed. The reaction conditions are as follows: substrate, 0.5 μmol/L ethoxyresorufin (CYP1A2), 100 μmol/L tolbutamide (CYP2C9), 50 μmol/L S-mephenitoin (CYP2C19), 5 μmol/L dextromethorphan (CYP2D6), 1 μmol/L terfenedine (CYP3A4); reaction time, 15 minutes; reaction temperature, 37° C.; enzyme, pooled human liver microsomes 0.2 mg protein/mL; concentrations of the compound of the present invention, 1, 5, 10, 20 μmol/L (four points). As a reaction solution, each five kinds of substrates, human liver microsomes, or compound of the present invention in 50 mmol/L Hepes buffer were added to a 96-well plate at the composition as described above, and NADPH, as a cofactor was added to initiate metabolism reactions. After the incubation at 37° C. for 15 minutes, a methanol/acetonitrile=1/[…]) solution was added to stop the reaction. After the centrifugation at 3000 rpm for 15 minutes, resorufin (CYP1A2 metabolite) in the supernatant was quantified by a fluorescent multilabel counter or LC/MS/MS, and tolbutamide hydroxide (CYP2C9 metabolite), mephenytoin 4' hydroxide (CYP2C19 metabolite), dextrorphan (CYP2D6 metabolite), and terfenadine alcohol (CYP3A4 metabolite) were quantified by LC/MS/MS. Addition of only DMSO being a solvent dissolving a drug to a reaction system was adopted as a control (100%). Remaining activity (%) was calculated. IC50 was calculated by reverse presumption by a logistic model using the concentration and an inhibition rate.

[5] = molecular target: CYP2C9 (Homo sapiens (Human), UniProt P11712); test: CYP inhibition test, CYP2C9; assay type: in vitro ADME; conditions: pooled human liver microsomes; tolbutamide methyl-hydroxylation; given as 'five kinds'
CYP2C9, sequence (P11712 whole entry): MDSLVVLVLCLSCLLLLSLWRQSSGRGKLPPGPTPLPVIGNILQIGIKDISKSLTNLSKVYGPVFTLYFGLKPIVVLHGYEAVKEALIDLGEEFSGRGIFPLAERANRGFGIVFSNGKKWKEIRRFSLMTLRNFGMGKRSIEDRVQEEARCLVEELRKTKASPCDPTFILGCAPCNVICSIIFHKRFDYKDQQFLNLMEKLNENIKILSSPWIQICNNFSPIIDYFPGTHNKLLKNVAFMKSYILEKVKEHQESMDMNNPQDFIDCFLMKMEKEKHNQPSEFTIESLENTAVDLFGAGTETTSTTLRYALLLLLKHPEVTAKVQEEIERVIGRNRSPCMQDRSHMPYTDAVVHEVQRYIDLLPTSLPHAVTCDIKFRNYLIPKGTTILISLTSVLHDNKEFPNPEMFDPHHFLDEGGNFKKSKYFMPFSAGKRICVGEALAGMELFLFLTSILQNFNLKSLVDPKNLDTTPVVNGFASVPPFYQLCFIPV
Description: as §1

[6] = molecular target: CYP2C19 (Homo sapiens (Human), UniProt P33261); test: CYP inhibition test, CYP2C19; assay type: in vitro ADME; conditions: pooled human liver microsomes; mephenytoin 4′-hydroxylation; given as 'five kinds'
CYP2C19, sequence (P33261 whole entry): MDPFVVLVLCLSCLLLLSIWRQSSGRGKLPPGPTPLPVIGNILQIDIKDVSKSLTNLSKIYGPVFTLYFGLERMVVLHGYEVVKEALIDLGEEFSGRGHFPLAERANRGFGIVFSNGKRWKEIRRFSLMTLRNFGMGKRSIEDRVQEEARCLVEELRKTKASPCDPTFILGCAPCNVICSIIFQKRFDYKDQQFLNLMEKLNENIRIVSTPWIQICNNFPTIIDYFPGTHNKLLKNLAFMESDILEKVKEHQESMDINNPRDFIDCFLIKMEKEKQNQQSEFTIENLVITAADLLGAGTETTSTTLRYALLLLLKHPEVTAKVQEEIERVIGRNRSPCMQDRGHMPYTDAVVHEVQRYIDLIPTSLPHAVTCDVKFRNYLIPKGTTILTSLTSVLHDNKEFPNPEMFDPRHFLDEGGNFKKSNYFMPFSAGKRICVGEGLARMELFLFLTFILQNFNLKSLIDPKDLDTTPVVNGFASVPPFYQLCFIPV
Description: as §1

[7] = molecular target: CYP2D6 (Homo sapiens (Human), UniProt P10635); test: CYP inhibition test, CYP2D6; assay type: in vitro ADME; conditions: pooled human liver microsomes; dextromethorphan O-demethylation; given as 'five kinds'
CYP2D6, sequence (P10635 whole entry): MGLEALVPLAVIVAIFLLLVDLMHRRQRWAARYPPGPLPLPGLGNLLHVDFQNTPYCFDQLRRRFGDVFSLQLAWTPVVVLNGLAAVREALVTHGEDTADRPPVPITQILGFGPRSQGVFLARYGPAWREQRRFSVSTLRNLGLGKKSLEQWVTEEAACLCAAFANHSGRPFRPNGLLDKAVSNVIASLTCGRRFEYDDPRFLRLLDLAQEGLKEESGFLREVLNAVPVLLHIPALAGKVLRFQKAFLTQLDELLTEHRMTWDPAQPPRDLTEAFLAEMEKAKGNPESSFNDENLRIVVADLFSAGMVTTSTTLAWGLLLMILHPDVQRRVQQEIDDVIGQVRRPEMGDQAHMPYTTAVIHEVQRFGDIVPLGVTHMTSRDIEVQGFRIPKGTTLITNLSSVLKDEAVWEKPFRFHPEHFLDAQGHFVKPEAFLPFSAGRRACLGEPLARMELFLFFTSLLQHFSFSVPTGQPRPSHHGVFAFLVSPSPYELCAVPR
Description: as §1

[8] = molecular target: T1, CYP3A4 (Homo sapiens (Human), UniProt P08684); test: CYP inhibition test, CYP3A4; assay type: in vitro ADME; conditions: pooled human liver microsomes; terfenadine hydroxylation; given as 'five kinds'
T1 sequence (P08684 whole entry): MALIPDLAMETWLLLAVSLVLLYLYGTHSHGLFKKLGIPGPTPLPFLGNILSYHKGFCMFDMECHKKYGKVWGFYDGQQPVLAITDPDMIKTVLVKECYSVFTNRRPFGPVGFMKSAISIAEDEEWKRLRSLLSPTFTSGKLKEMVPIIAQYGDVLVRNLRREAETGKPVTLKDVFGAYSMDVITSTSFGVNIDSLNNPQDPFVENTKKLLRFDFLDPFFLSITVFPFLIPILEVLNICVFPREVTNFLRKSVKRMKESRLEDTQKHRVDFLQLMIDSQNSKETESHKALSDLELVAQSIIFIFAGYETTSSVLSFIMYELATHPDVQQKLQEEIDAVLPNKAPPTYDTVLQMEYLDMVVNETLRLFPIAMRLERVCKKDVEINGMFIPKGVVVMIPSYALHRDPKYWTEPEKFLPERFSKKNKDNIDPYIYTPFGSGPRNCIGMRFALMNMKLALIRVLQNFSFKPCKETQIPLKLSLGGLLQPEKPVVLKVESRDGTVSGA
Description: as §1

[9] = molecular target: T1, CYP3A4; test: CYP3A4 (MDZ) MBI test; assay type: in vitro ADME; conditions: pooled human liver microsomes; midazolam 1-hydroxylation; preincubation 0 vs 30 min
Experimental: CYP3A4 (MDZ) MBI test is a test of investigating mechanism based inhibition (MBI) potential on CYP3A4 by the enhancement of inhibitory degree of a metabolic reaction caused by the compound of the present invention. CYP3A4 inhibition was evaluated using pooled human liver microsomes by 1-hydroxylation reaction of midazolam (MDZ) as a marker reaction.
The reaction conditions are as follows: substrate, 10 μmol/L MDZ; pre-reaction time, 0 or 30 minutes; substrate reaction time, 2 minutes; reaction temperature, 37° C.; protein content of pooled human liver microsomes, at pre-reaction time 0.5 mg/mL, at reaction time 0.05 mg/mL (at 10-fold dilution); concentrations of the compound of the present invention, at pre-reaction time 1, 5, 10, 20 μmol/L (four points).
Pooled human liver microsomes and a solution of the compound of the present invention in K-Pi buffer (pH 7.4) as a pre-reaction solution were added to a 96-well plate at the composition of the pre-reaction. A part of pre-reaction solution was transferred to another 96-well plate, and 1/10 diluted by K-Pi buffer containing a substrate. NADPH as a co-factor was added to initiate a reaction as a marker reaction (without pre-reaction). After a predetermined time of a reaction, methanol/acetonitrile=1/1 (V/V) solution was added to stop the reaction. In addition, NADPH was added to a remaining pre-reaction solution to initiate a pre-reaction (with pre-reaction). After a predetermined time of a pre-reaction, a part was transferred to another plate, and 1/10 diluted by K-Pi buffer containing a substrate to initiate a reaction as a marker reaction. After a predetermined time of a reaction, methanol/acetonitrile=1/1 (V/V) solution was added in order to stop the reaction. The plate on which each index reaction had been performed was centrifuged at 3000 rpm for 15 minutes, and thereafter 1-hydroxylated midazolam in the supernatant was quantified by LC/MS/MS.
The sample adding DMSO as a solvent to a reaction system instead of a solution dissolving the compound of the present invention was adopted as a control (100%). Remaining activity (%) was calculated at each concentration of the compound of the present invention compared to a control, and IC value was calculated by reverse-presumption by a logistic model using a concentration and an inhibition rate. IC at Preincubation 0 min/IC at Preincubation 30 min was defined as a value of Shifted IC, and a case that Shifted IC was 1.5 or more was regarded as Positive, and a case that Shifted IC was 1.0 or less was regarded as Negative.

[10] = molecular target: hERG (IKr) (Homo sapiens (Human), UniProt Q12809); test: hERG test; assay type: cell-based; conditions: CHO cells expressing hERG channel, pH 7.4, 10 μmol/L of test compound, read-out: % inhibition of hERG tail peak current (IKr)
hERG (IKr), sequence (Q12809 whole entry): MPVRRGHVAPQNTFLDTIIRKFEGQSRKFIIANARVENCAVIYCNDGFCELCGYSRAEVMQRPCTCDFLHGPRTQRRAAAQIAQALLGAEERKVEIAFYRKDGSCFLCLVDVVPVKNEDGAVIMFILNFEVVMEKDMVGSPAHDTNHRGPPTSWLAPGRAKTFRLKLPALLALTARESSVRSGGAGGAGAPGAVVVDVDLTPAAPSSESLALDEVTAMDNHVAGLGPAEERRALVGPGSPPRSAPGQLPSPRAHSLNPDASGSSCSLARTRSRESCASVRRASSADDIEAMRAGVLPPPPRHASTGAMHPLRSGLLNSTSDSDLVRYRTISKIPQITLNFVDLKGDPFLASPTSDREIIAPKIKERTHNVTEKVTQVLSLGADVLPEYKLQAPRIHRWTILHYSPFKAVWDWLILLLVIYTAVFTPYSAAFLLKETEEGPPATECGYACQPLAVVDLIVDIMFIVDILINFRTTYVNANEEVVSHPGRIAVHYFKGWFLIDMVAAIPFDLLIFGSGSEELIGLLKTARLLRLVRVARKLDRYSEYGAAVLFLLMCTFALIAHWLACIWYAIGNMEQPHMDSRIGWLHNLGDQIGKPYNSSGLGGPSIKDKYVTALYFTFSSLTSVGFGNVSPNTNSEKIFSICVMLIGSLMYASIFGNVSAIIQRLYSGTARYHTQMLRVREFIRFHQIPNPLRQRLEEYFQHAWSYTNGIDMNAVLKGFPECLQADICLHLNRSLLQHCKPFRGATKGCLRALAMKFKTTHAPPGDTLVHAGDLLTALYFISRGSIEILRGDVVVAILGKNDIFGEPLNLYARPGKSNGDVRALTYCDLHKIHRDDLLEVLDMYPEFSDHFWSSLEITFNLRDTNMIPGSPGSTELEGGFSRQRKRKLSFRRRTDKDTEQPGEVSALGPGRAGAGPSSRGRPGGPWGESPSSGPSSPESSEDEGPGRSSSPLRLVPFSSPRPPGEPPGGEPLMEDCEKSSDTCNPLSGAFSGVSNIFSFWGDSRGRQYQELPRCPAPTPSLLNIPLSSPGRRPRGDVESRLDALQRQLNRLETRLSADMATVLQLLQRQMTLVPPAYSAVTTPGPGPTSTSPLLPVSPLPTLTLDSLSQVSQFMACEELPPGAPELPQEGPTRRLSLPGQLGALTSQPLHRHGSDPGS
Description: For the purpose of assessing risk of an electrocardiogram QT interval prolongation of the compound of the present invention, effects of the compound of the present invention on delayed rectifier K^+ current (IKr), which plays an important role in the ventricular repolarization process, was studied using CHO cells expressing human ether-a-go-go related gene (hERG) channel.
After a cell was retained at a membrane potential of −80 mV by whole cell patch clamp method using an automated patch clamp system (QPatch; Sophion BIoscience A/S), IKr induced by application of a leak potential of −50 mV followed by depolarization pulse stimulation at +20 mV for 2 seconds and, further, repolarization pulse stimulation at −50 mV for 2 seconds, was recorded. […] From the recording IKr, an absolute value of the tail peak current was measured based on the current value at the resting membrane potential using analysis software (Falster Patch; Sophion Bioscience A/S). Further, the % inhibition of tail peak current for the compound of the present invention relative to the tail peak current after application of the vehicle is calculated to assess influence of the compound of the present invention on IKr.

recombinant human MGAT2, sequence (Q3SYC2 whole entry): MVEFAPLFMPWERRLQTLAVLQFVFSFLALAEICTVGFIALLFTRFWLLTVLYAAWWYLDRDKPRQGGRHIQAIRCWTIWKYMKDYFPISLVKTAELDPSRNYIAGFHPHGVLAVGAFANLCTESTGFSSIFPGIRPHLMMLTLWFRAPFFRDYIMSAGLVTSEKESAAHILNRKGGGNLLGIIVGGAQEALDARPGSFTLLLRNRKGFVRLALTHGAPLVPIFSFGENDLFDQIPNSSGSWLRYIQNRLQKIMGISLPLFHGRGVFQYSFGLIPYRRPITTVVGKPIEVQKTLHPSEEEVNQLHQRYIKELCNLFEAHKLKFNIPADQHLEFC

Row | IC50 [1] [µM] | Remaining rate [2] [%] | solubility at 16 h [3] [µM] | IC50 [4] [µM] | IC50 [5] [µM] | IC50 [6] [µM] | IC50 [7] [µM] | IC50 [8] [µM] | Compound | CYP3A4 (MDZ) MBI (Shifted IC judgement) [9] | inhibition at 10 min, 10 μmol/L [10] [%]
1 | 0.00193 | 76 | – | – | – | – | – | – | N#Cc1ccc(-c2nn3c(c2NC(=O)c2ccno2)C(=O)N[C@@]2(CCc4cc(OCC(F)(F)F)ccc42)C3)nc1 [Compound I-13] | – | –
2 | 0.00141 | 95.6 | – | – | – | – | – | – | CS(=O)(=O)CC(=O)Nc1c(-c2ccc(F)cc2)nn2c1C(=O)NC1(CN(c3ccc(C(F)(F)F)cc3)C1)C2 [Compound I-61] | – | –
3 | – | 105 | > 50 | > 20 | > 20 | > 20 | > 20 | > 20 | CS(=O)(=O)CC(=O)Nc1c(-c2ccc(F)cc2)nn2c1C(=O)N[C@@]1(CCOc3cc(OCC(F)(F)F)ccc31)C2 [Compound I-66] | Negative (a case that Shifted IC was 1.0 or less was regarded as Negative) | 14.6
4 | – | 77.2 | > 50 | – | – | – | – | – | CS(=O)(=O)CC(=O)Nc1c(-c2ccc(F)cc2)nn2c1C(=O)N[C@]1(CCc3cc(OCC(F)(F)F)ccc31)C2 [Compound I-79] | – | 25.5

More lines, now with the values behind:

Row | Compound | IC50 [1] [µM] | Remaining rate [2] [%] | solubility at 16 h [3] [µM] | IC50 [4] [µM] | IC50 [5] [µM] | IC50 [6] [µM] | IC50 [7] [µM] | IC50 [8] [µM] | CYP3A4 (MDZ) MBI (Shifted IC judgement) [9] | inhibition at 10 min, 10 μmol/L [10] [%]
5 | CS(=O)(=O)CC(=O)Nc1c(-c2ccc(F)c(F)c2)nn2c1C(=O)N[C@@]1(CCOc3cc(F)cc(F)c31)C2 [Compound I-126] | – | 100 | > 50 | > 20 | > 20 | > 20 | > 20 | > 20 | Negative (a case that Shifted IC was 1.0 or less was regarded as Negative) | 14.2
6 | CS(=O)(=O)CC(=O)Nc1c(-c2ccc(F)c(F)c2)nn2c1C(=O)N[C@@]1(CCc3cc(F)cc(F)c31)C2 [Compound I-130] | – | 94.8 | > 50 | > 20 | > 20 | > 20 | > 20 | > 20 | Negative (a case that Shifted IC was 1.0 or less was regarded as Negative) | 15.4
7 | CS(=O)(=O)CC(=O)Nc1c(-c2ccc(Cl)cn2)nn2c1C(=O)N[C@]1(CCc3cc(F)cc(F)c31)C2 [Compound I-147] | – | 89.8 | > 50 | > 20 | > 20 | > 20 | > 20 | > 20 | Negative (a case that Shifted IC was 1.0 or less was regarded as Negative) | 21.6
8 | CS(=O)(=O)CC(=O)Nc1c(-c2ccc(Cl)cn2)nn2c1C(=O)N[C@]1(CCOc3cc(F)cc(F)c31)C2 [Compound I-151] | – | 104 | > 50 | > 20 | > 20 | > 20 | > 20 | > 20 | Negative (a case that Shifted IC was 1.0 or less was regarded as Negative) | 25.8

— patent publication US12227509B2, “Dihydropyrazolopyrazinone derivative having MGAT2 inhibitory activity” (Shionogi & Co., Ltd., priority 2019, dated 2025)
